From patent US10966994B2, “Thromboxane receptor antagonists” (ATXA THERAPEUTICS LIMITED, priority 2015, dated 2021)

Key:
[1] = target: T1, EP3 receptor (Homo sapiens, UniProt P43115); assay: Specificity testing, EP3 receptor signaling; assay type: cell-based
T1 sequence (P43115 1-390): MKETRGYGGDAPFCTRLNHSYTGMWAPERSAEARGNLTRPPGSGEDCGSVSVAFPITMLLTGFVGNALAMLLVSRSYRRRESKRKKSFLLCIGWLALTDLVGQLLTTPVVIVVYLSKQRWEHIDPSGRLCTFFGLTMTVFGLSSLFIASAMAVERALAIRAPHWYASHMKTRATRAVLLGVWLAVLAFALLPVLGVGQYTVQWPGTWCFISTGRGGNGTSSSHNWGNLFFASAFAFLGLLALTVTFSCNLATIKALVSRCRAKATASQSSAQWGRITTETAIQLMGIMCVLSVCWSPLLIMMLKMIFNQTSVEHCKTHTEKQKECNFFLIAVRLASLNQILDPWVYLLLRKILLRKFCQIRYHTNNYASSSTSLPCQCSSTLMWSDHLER

[2] = target: T2, thrombin (PAR1) receptors (Homo sapiens, UniProt P25116); assay: Specificity testing, thrombin (PAR1) receptor signaling
T2 sequence (P25116 22-425): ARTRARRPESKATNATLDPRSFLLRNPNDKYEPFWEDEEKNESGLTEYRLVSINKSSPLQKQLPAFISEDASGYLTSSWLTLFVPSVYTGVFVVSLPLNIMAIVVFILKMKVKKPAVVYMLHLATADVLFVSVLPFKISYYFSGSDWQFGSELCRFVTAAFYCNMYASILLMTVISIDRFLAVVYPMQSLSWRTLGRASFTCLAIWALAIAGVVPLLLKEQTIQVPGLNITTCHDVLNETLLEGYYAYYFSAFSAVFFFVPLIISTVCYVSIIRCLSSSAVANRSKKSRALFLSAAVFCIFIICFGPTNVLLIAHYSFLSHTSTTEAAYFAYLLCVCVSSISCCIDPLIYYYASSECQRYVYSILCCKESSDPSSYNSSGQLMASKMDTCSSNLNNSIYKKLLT

[3] = target: T3, EP1 receptor (Homo sapiens, UniProt P34995); assay: Specificity testing, EP1 receptor signaling; assay type: cell-based
T3 sequence (P34995 1-402): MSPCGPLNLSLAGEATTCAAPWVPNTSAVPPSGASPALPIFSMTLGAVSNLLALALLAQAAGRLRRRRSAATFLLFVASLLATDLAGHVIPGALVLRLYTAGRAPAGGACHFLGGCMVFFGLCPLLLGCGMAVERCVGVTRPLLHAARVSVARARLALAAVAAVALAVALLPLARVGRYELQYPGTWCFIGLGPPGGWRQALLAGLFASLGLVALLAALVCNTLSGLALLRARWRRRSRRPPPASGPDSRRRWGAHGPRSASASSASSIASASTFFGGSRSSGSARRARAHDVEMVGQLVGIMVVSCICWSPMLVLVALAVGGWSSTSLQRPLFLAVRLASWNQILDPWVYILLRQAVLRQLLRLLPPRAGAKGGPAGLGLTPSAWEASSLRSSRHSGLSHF
Procedure: There is no or minimal inhibition of the majority of the non-TP-mediated signaling observed in the presence of either NTP42 & NTP48. Where there is inhibition of signaling, it is observed at the 10 μM concentration only. […] Compared to NTP42, NTP48 has less of an effect on the signaling of the non-TP prostanoid receptors and therefore, may be considered more favorable in this context.

[4] = target: T4, TPα (Homo sapiens, UniProt P21731); assay: U46619-mediated calcium mobilization in HEK.TPα cells; assay type: cell-based; conditions: for inhibition of U46619-mediated calcium mobilization, TPα (in words): 1 μM U46619; for IC50: 1 μM U46619, estimated IC50, mean ± S.E.M., read-out: IC50 values for Inhibition of U46619-Mediated [Ca2+]i Mobilisation, TPα
T4 construct: expressed in transfected cells; host or cells: HEK 293 (HEK.TPα, isolate HR #4)
T4 sequence (P21731 1-343): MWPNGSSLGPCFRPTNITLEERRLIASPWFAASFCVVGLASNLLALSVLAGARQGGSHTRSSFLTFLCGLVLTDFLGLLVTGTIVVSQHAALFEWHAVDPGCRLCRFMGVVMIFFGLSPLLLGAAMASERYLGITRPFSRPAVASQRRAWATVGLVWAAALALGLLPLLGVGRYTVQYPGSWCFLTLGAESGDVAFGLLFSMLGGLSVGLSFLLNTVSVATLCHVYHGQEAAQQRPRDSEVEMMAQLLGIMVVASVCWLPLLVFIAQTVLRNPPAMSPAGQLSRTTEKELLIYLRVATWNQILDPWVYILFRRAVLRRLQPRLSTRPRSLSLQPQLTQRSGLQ
Procedure: NTP42-NTP49, northern group variants of NTP4, were assessed through calcium mobilization assays using proprietary HEK 293 cells over-expressing the thromboxane (TX)A2 receptor, α (TPα) and β (TPβ) isoforms, referred to as HEK.TPα and HEK.TPβ cells, respectively. The initial screening involved dose-responses assays (concentrations used 0.0001 (TPβ only), 0.001, 0.1, 1 & 10 μM; (TPα and TPβ)) followed by more focused, full dose response assays (concentration range: 0.00001 to 10 μM) for determination of IC50 values where the effect of the compounds on calcium mobilized in response to the TXA2 mimetic U46619 (1 μM) were performed in side-by-side comparison with the key lead compounds TP20 and NTP4.
As stated, NTP42-NTP49 were screened through calcium mobilization assays using HEK.TPα and HEK.TPβ cells over-expressing the thromboxane (TX)A2 receptor, α (TPα) and β (TPβ) isoforms, respectively. The initial screening involved dose-response assays where the compounds, used at 0.0001 (TPβ only), 0.001, 0.1, 1 & 10 μM (TPα and TPβ), were assessed for their ability to inhibit the TXA2 mimetic U46619 (1 μM). The compounds were tested in side-by-side assays with the previously identified key lead compounds TP20 and NTP4.
HEK.TPα (HR #4) cells, preloaded with Fluo-4, were incubated with the TP20, NTP4, NTP42, NTP43, NTP44, NTP45, NTP47, NTP48 & NTP49 where each antagonist was used at 0.001, 0.1, 1 & to 10 μM, as indicated, prior to stimulation with 1 μM U46619. Data is presented as the mean (±S.E.M.) percentage of the agonist-induced response in vehicle-treated cells (Percentage of Control; %) and represents data from at least 4 independent experiments were cells were treated in duplicate.
HEK.TPα (HR #4) cells, preloaded with Fluo-4, were incubated with the TP20, NTP4, NTP42, NTP43 and NTP48 where each antagonist was used at 0.00001-10 μM, as indicated, prior to stimulation with 1 μM U46619. Data is presented as the mean (±S.E.M.) percentage of the agonist induced response in vehicle-treated cells (Percentage of Control; %) and represents data from at least 3 independent experiments were cells were treated in duplicate.

[5] = system: purinergic (ADP) receptors; assay: Specificity testing, purinergic (ADP) receptor signaling
[6] = Cell permeability; assay type: in vitro ADME
[7] = Toxicity

With `COc1ccc(-c2cccc(Oc3ccc(C#N)cc3S(=O)(=O)NC(=O)NC(C)(C)C)c2)cc1` [NTP4, reference compound] the “effect on the EP3 receptor” value [1] was “like TP20 and NTP4, neither NTP42, NTP43 nor NTP48 exhibited any effect”, the “effect on signaling through thrombin (PAR1) receptors” value (from here on “effect on signaling through thrombin”) [2] was “like TP20 and NTP4, neither NTP42, NTP43 nor NTP48 exhibited any effect” and the “effect on the EP1 receptor” value [3] was “like TP20 and NTP4, neither NTP42, NTP43 nor NTP48 exhibited any effect”. The “inhibition of U46619-mediated calcium mobilization, TPα (in words)” value [4] was “potently inhibited” and the “effect on signaling through purinergic (ADP) receptors” value (shortened to “effect … (ADP) receptors”) [5] was “like TP20 and NTP4, neither NTP42, NTP43 nor NTP48 exhibited any effect”.
For `CC(C)(C)NC(=O)NS(=O)(=O)c1cc(C#N)ccc1Oc1cccc(-c2ccc(OC(F)F)cc2)c1` [NTP42], the cell permeability [6] was “favorable cell permeability”, the “effect on the EP3 receptor” value [1] was “no effect” and the “effect on signaling through thrombin” value [2] was “neither NTP42, NTP43 nor NTP48 exhibited any effect”. The “effect on the EP1 receptor” value [3] was “no effect”, the “percentage reduction in responses, EP1” value ([3]; maximal inhibition, at 10 μM only) was roughly 55% and the IC50 [4] was 56.2 ± 4.84 nM. The “effect … (ADP) receptors” value [5] was “neither NTP42, NTP43 nor NTP48 exhibited any effect” and the toxicity [7] was “minimal toxicity”.
In the case of `COc1ccc(-c2cccc(Oc3ccc([N+](=O)[O-])cc3S(=O)(=O)NC(=O)NC(C)(C)C)c2)cc1` [TP20, reference compound], the “effect on the EP3 receptor” value [1] is reported as “like TP20 and NTP4, neither NTP42, NTP43 nor NTP48 exhibited any effect”, the “effect on signaling through thrombin” value [2] is reported as “like TP20 and NTP4, neither NTP42, NTP43 nor NTP48 exhibited any effect” and the “effect on the EP1 receptor” value [3] is reported as “like TP20 and NTP4, neither NTP42, NTP43 nor NTP48 exhibited any effect”. The “inhibition of U46619-mediated calcium mobilization, TPα (in words)” value [4] was “potently inhibited”, the IC50 [4] was 125 ± 11.4 nM and the “effect … (ADP) receptors” value [5] was “like TP20 and NTP4, neither NTP42, NTP43 nor NTP48 exhibited any effect”.
With `CN(C)C(=O)c1ccc(-c2cccc(Oc3ccc(C#N)cc3S(=O)(=O)NC(=O)NC(C)(C)C)c2)cc1` [NTP48, 4-[3-[2-(tert-Butylcarbamoylsulfamoyl)-4-cyano-phenoxy]phenyl]-N,N-dimethyl-benzamide] the cell permeability [6] was “favorable cell permeability”, the “effect on the EP3 receptor” value [1] was “no effect” and the “effect on signaling through thrombin” value [2] was “neither NTP42, NTP43 nor NTP48 exhibited any effect”. For the same compound, the “effect on the EP1 receptor” value [3] was “no effect”, the IC50 [4] was 90.1 ± 6.43 nM and the “effect … (ADP) receptors” value [5] was “neither NTP42, NTP43 nor NTP48 exhibited any effect”. For the same compound, the toxicity [7] was “minimal toxicity”.
With `CC(C)(C)NC(=O)NS(=O)(=O)c1cc(C#N)ccc1Oc1cccc(-c2ccc(OC(F)(F)F)cc2)c1` [NTP43] the cell permeability [6] was “favorable cell permeability”, the “effect on the EP3 receptor” value [1] was “not to exhibit any effect” and the “effect on signaling through thrombin” value [2] was “neither NTP42, NTP43 nor NTP48 exhibited any effect”. For the same compound, the “effect on the EP1 receptor” value [3] was “not to exhibit any effect”, the IC50 [4] was 105 ± 7.95 nM and the “effect … (ADP) receptors” value [5] was “neither NTP42, NTP43 nor NTP48 exhibited any effect”. For the same compound, the toxicity [7] was “minimal toxicity”.
